Experimental data reported in US11053204B2, “Pyrimidinyloxy benzene derivatives as herbicides” (FMC Corporation, priority 2015, dated 2021).

Key:
Format in all cases: in vivo
[1] = system: pigweed (Amaranthus retroflexus); assay: Test C postemergence, plant response rating; conditions: for pest or weed control at 16 g/ha / pest or weed control at 31 g/ha / pest or weed control at 62 g/ha / pest or weed control at 125 g/ha: Amaranthus retroflexus, post-emergence; for pest or weed control at 62 g/ha / pest or weed control at 125 g/ha / Pigweed plant response rating: scale 0 to 100 (0 no effect, 100 complete control)
Outline: (§1)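 Greenhouse plants rated visually against untreated controls 13–15 d after treatment, scale 0 = no effect to 100 = complete control. Postemergence sprays went onto potted plants 2–18 cm tall (1–4 leaves); preemergence sprays onto soil freshly sown in loam–sand or silt loam, chemicals formulated in non-phytotoxic solvent with surfactant.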

[2] = system: johnsongrass (Sorghum halepense); assay: Test C postemergence, plant response rating; conditions: for Plant response rating, Johnsongrass: scale 0 to 100; for Johnsongrass plant response rating: scale 0 to 100 (0 no effect, 100 complete control)
Outline: as §1

[3] = system: galium (catchweed bedstraw, Galium aparine); assay: Test C preemergence, plant response rating
[4] = system: barnyardgrass (Echinochloa crus-galli); assay: Test C preemergence, plant response rating; conditions: Preemergence
[5] = system: johnsongrass (Sorghum halepense); assay: Test C preemergence, plant response rating

O=C(OCC(F)(F)C(F)(F)F)c1c(Br)cccc1Oc1ncc(Cl)cn1 [Compound 23, 2,2,3,3,3-pentafluoropropyl 2-bromo-6-[(5-chloro-2-pyrimidinyl)oxy]benzoate]
pest or weed control at 16 g/ha ([1]; 16 g ai/ha, scale 0 to 100): 60% | pest or weed control at 31 g/ha ([1]; 31 g ai/ha, scale 0 to 100): 75% | pest or weed control at 62 g/ha ([1]; 62 g ai/ha): 70% | pest or weed control at 125 g/ha ([1]; 125 g ai/ha): 85% | Plant response rating, Johnsongrass ([2]; 16 g ai/ha): 0 | Plant response rating, Johnsongrass ([2]; 31 g ai/ha): 15 | Johnsongrass plant response rating ([2]; 62 g ai/ha): 15 | Johnsongrass plant response rating ([2]; 125 g ai/ha): 20

O=C(OCCC(F)(F)F)c1c(Br)cccc1Oc1ncc(Cl)cn1 [Compound 26, 3,3,3-trifluoropropyl 2-bromo-6-[(5-chloro-2-pyrimidinyl)oxy]benzoate]
Plant response rating, Galium ([3]; 16 g ai/ha, scale 0 to 100): 5 | Plant response rating, Galium ([3]; 31 g ai/ha, scale 0 to 100): 90 | Plant response rating, Galium ([3]; 62 g ai/ha, scale of 0 to 100): 95 | Plant response rating, Galium ([3]; 125 g ai/ha, scale of 0 to 100): 100 | pest or weed control at 62 g/ha ([4]; Echinochloa crus-galli, pre-emergence, 62 g ai/ha, scale of 0 to 100): 100% | pest or weed control at 125 g/ha ([4]; Echinochloa crus-galli, pre-emergence, 125 g ai/ha, scale of 0 to 100): 100% | pest or weed control at 16 g/ha ([4]; Echinochloa crus-galli, pre-emergence, 16 g ai/ha, scale 0 to 100): 40% | pest or weed control at 31 g/ha ([4]; Echinochloa crus-galli, pre-emergence, 31 g ai/ha, scale 0 to 100): 75% | pest or weed control at 16 g/ha ([1]; 16 g ai/ha, scale 0 to 100): 75% | pest or weed control at 31 g/ha ([1]; 31 g ai/ha, scale 0 to 100): 98% | pest or weed control at 62 g/ha ([1]; 62 g ai/ha): 98% | pest or weed control at 125 g/ha ([1]; 125 g ai/ha): 100% | Plant response rating, Johnsongrass ([2]; 16 g ai/ha): 10 | Plant response rating, Johnsongrass ([2]; 31 g ai/ha): 20 | Johnsongrass plant response rating ([2]; 62 g ai/ha): 20 | Johnsongrass plant response rating ([2]; 125 g ai/ha): 25 | Plant response rating, Johnsongrass ([5]; 16 g ai/ha, scale 0 to 100): 55 | Plant response rating, Johnsongrass ([5]; 31 g ai/ha, scale 0 to 100): 50 | Plant response rating, Johnsongrass ([5]; 62 g ai/ha, scale 0 to 100): 80 | Plant response rating, Johnsongrass ([5]; 125 g ai/ha, scale of 0 to 100): 98

N#Cc1cccc(Oc2ncc(Cl)cn2)c1C(=O)OCCC(F)(F)F [Compound 30]
Plant response rating, Galium ([3]; 16 g ai/ha, scale 0 to 100): 80 | Plant response rating, Galium ([3]; 31 g ai/ha, scale 0 to 100): 10 | Plant response rating, Galium ([3]; 62 g ai/ha, scale of 0 to 100): 60 | Plant response rating, Galium ([3]; 125 g ai/ha, scale of 0 to 100): 85 | Plant response rating, Barnyardgrass ([4]; 62 g ai/ha, scale of 0 to 100): 10 | Plant response rating, Barnyardgrass ([4]; 125 g ai/ha, scale of 0 to 100): 25 | Plant response rating, Barnyardgrass ([4]; 16 g ai/ha, scale 0 to 100): 10 | Plant response rating, Barnyardgrass ([4]; 31 g ai/ha, scale 0 to 100): 15 | Plant response rating, Johnsongrass ([5]; 16 g ai/ha, scale 0 to 100): 0 | Plant response rating, Johnsongrass ([5]; 31 g ai/ha, scale 0 to 100): 0 | Plant response rating, Johnsongrass ([5]; 62 g ai/ha, scale 0 to 100): 0 | Plant response rating, Johnsongrass ([5]; 125 g ai/ha, scale of 0 to 100): 15

O=C(OCCC(F)(F)F)c1c(Br)cccc1Oc1ncc(Br)cn1 [Compound 33]
Plant response rating, Galium ([3]; 16 g ai/ha, scale 0 to 100): 0 | Plant response rating, Galium ([3]; 31 g ai/ha, scale 0 to 100): 60 | Plant response rating, Galium ([3]; 62 g ai/ha, scale of 0 to 100): 60 | Plant response rating, Galium ([3]; 125 g ai/ha, scale of 0 to 100): 95 | Plant response rating, Barnyardgrass ([4]; 62 g ai/ha, scale of 0 to 100): 95 | Plant response rating, Barnyardgrass ([4]; 125 g ai/ha, scale of 0 to 100): 100 | Plant response rating, Barnyardgrass ([4]; 16 g ai/ha, scale 0 to 100): 20 | Plant response rating, Barnyardgrass ([4]; 31 g ai/ha, scale 0 to 100): 40 | Plant response rating, Pigweed ([1]; 16 g ai/ha, scale 0 to 100): 95 | Plant response rating, Pigweed ([1]; 31 g ai/ha, scale 0 to 100): 95 | Pigweed plant response rating ([1]; 62 g ai/ha): 98 | Pigweed plant response rating ([1]; 125 g ai/ha): 100 | Plant response rating, Johnsongrass ([2]; 16 g ai/ha): 10 | Plant response rating, Johnsongrass ([2]; 31 g ai/ha): 10 | Johnsongrass plant response rating ([2]; 62 g ai/ha): 20 | Johnsongrass plant response rating ([2]; 125 g ai/ha): 20 | Plant response rating, Johnsongrass ([5]; 16 g ai/ha, scale 0 to 100): 0 | Plant response rating, Johnsongrass ([5]; 31 g ai/ha, scale 0 to 100): 5 | Plant response rating, Johnsongrass ([5]; 62 g ai/ha, scale 0 to 100): 25 | Plant response rating, Johnsongrass ([5]; 125 g ai/ha, scale of 0 to 100): 35

O=C(OCC(F)(F)F)c1c(Br)cccc1Oc1ncc(Cl)cn1 [Compound 35]
Plant response rating, Pigweed ([1]; 16 g ai/ha, scale 0 to 100): 80 | Plant response rating, Pigweed ([1]; 31 g ai/ha, scale 0 to 100): 70 | Pigweed plant response rating ([1]; 62 g ai/ha): 90 | Pigweed plant response rating ([1]; 125 g ai/ha): 98 | Plant response rating, Johnsongrass ([2]; 16 g ai/ha): 0 | Plant response rating, Johnsongrass ([2]; 31 g ai/ha): 5 | Johnsongrass plant response rating ([2]; 62 g ai/ha): 10 | Johnsongrass plant response rating ([2]; 125 g ai/ha): 10

O=C(CCCC(F)(F)F)c1c(Br)cccc1Oc1ncc(Cl)cn1 [Compound 77]
Plant response rating, Galium ([3]; 16 g ai/ha, scale 0 to 100): 0 | Plant response rating, Galium ([3]; 31 g ai/ha, scale 0 to 100): 0 | Plant response rating, Galium ([3]; 62 g ai/ha, scale of 0 to 100): 98 | Plant response rating, Galium ([3]; 125 g ai/ha, scale of 0 to 100): 98 | Plant response rating, Barnyardgrass ([4]; 62 g ai/ha, scale of 0 to 100): 98 | Plant response rating, Barnyardgrass ([4]; 125 g ai/ha, scale of 0 to 100): 100 | Plant response rating, Barnyardgrass ([4]; 16 g ai/ha, scale 0 to 100): 20 | Plant response rating, Barnyardgrass ([4]; 31 g ai/ha, scale 0 to 100): 60 | Plant response rating, Pigweed ([1]; 16 g ai/ha, scale of 0 to 100): 95 | Plant response rating, Pigweed ([1]; 31 g ai/ha, scale 0 to 100): 98 | Pigweed plant response rating ([1]; 62 g ai/ha): 100 | Pigweed plant response rating ([1]; 125 g ai/ha): 100

O=C(CCC(F)(F)F)c1c(Br)cccc1Oc1ncc(Cl)cn1 [Compound 92]
Plant response rating, Barnyardgrass ([4]; 125 g ai/ha, scale of 0 to 100): 100 | Plant response rating, Barnyardgrass ([4]; 16 g ai/ha, scale 0 to 100): 35 | Plant response rating, Barnyardgrass ([4]; 31 g ai/ha, scale 0 to 100): 85 | Plant response rating, Barnyardgrass ([4]; 62 g ai/ha, scale 0 to 100): 98 | Plant response rating, Pigweed ([1]; 16 g ai/ha, scale of 0 to 100): 85 | Plant response rating, Pigweed ([1]; 31 g ai/ha, scale 0 to 100): 90 | Pigweed plant response rating ([1]; 62 g ai/ha): 98 | Pigweed plant response rating ([1]; 125 g ai/ha): 100
